Results taken from ChEMBL document CHEMBL4028801, “A multifactorial approach to hepatobiliary transporter assessment enables improved therapeutic compound development” (Toxicol Sci, 2013).

Experiments:
Bile salt export pump = Bile salt export pump (Homo sapiens, UniProt O95342); assay: Inhibition of human BSEP overexpressed in Sf9 cell membrane vesicles assessed as uptake of [3H]-taurocholate in presence of ATP measured after 15 to 20 mins by membrane vesicle transport assay; format: ADME, cell-based
[1] = AUC in human at 0.35 mg, po QD after 24 hrs; format: ADME, organism-based; design: time < 24 hr, dose 0.35 mg, route oral; conditions: in vivo
[2] = Drug concentration at steady state in human at 0.35 mg, po QD after 24 hrs; format: ADME, organism-based; conditions: in vivo, read-out: Css
[3] = target: ATP-binding cassette sub-family C member 2 (Homo sapiens, UniProt Q92887); assay: Inhibition of human MRP2 overexpressed in Sf9 cell membrane vesicles assessed as uptake of [3H]-estradiol-17beta-D-glucuronide in presence of ATP and GSH measured after 20 mins by membrane vesicle transport assay
[4] = Ratio of drug concentration at steady state in human at 0.35 mg, po QD after 24 hrs to IC50 for human BSEP overexpressed in Sf9 insect cells; format: ADME, organism-based; conditions: in vivo
[5] = target: ATP-binding cassette sub-family C member 3 (Homo sapiens, UniProt O15438); assay: Inhibition of human MRP3 overexpressed in Sf9 insect cell membrane vesicles assessed as uptake of [3H]-estradiol-17beta-D-glucuronide in presence of ATP and GSH measured after 10 mins by membrane vesicle transport assay; format: ADME, cell-based
[6] = target: T1, ATP-binding cassette sub-family C member 4 (Homo sapiens, UniProt O15439); assay: Inhibition of human MRP4 overexpressed in Sf9 cell membrane vesicles assessed as uptake of [3H]-estradiol-17beta-D-glucuronide in presence of ATP and GSH measured after 20 mins by membrane vesicle transport assay; format: ADME, cell-based
T1 sequence (O15439 whole entry): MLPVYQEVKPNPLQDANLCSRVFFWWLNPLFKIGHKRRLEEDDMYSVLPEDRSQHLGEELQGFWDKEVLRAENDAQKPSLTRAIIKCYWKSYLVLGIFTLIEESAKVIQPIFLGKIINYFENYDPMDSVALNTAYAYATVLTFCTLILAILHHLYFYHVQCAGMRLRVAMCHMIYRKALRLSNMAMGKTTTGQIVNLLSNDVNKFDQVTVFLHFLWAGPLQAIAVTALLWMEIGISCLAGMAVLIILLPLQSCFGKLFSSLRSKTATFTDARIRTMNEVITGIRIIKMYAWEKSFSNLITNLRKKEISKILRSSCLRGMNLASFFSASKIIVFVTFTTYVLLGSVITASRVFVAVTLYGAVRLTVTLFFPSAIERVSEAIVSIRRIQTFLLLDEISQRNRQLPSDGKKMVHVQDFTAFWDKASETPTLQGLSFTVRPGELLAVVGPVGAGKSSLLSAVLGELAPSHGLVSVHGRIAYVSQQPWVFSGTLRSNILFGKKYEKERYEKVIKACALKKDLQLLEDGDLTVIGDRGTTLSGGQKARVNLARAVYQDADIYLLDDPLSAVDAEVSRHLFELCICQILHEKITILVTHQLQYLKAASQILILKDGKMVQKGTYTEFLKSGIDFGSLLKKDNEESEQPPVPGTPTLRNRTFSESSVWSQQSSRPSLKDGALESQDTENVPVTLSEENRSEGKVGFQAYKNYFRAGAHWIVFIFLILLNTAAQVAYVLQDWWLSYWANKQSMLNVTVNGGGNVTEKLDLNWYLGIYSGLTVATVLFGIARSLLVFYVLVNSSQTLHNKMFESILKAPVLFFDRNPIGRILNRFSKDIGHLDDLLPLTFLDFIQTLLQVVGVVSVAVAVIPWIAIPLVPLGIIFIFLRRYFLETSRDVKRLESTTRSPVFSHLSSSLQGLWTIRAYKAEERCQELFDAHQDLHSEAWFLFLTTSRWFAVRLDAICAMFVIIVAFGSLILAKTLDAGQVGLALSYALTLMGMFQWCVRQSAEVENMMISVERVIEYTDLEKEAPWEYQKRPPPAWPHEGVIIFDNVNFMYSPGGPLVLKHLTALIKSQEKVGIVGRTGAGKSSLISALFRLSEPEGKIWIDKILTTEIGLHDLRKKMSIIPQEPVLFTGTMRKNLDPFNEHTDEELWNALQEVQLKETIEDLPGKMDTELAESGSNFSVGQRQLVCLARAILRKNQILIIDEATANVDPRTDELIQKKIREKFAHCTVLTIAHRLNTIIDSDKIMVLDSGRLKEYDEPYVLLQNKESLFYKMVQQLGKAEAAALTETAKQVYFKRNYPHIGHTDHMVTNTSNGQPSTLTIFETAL

[7] = Ratio of drug concentration at steady state in human at 20 to 60 mg, po QD after 24 hrs to IC50 for human MRP4 overexpressed in Sf9 insect cells; format: ADME, organism-based; conditions: in vivo
[8] = AUC in human at 20 to 60 mg, po QD after 24 hrs; format: ADME, organism-based; conditions: in vivo
[9] = Drug concentration at steady state in human at 20 to 60 mg, po QD after 24 hrs; format: ADME, organism-based; conditions: in vivo, read-out: Css
[10] = Ratio of drug concentration at steady state in human at 20 to 60 mg, po QD after 24 hrs to IC50 for human BSEP overexpressed in Sf9 insect cells; format: ADME, organism-based; conditions: in vivo
clinical [11] = conditions: human, in vivo, po
Homo sapiens [12] = assay: Drug concentration at steady state in human at 0.01 to 0.04 mg/kg, po after 24 hrs; format: ADME, organism-based; conditions: in vivo
[13] = Ratio of drug concentration at steady state in human at 0.075 to 0.26 mg/kg, po after 24 hrs to IC50 for human BSEP overexpressed in Sf9 insect cells; format: ADME, organism-based; conditions: in vivo
[14] = AUC in human at 0.075 to 0.26 mg/kg, po after 24 hrs; format: ADME, organism-based; conditions: in vivo
Homo sapiens [15] = assay: Drug concentration at steady state in human at 0.075 to 0.26 mg/kg, po after 24 hrs; format: ADME, organism-based; conditions: in vivo
[16] = Ratio of drug concentration at steady state in human at 0.075 to 0.26 mg/kg, po after 24 hrs to IC50 for human MRP2 overexpressed in Sf9 insect cells; format: ADME, organism-based; conditions: in vivo
[17] = Drug concentration at steady state in human at 0.5 to 4 mg, po BID/TID/QID after 6 hrs; format: ADME, organism-based; conditions: in vivo, read-out: Css
[18] = Ratio of drug concentration at steady state in human at 0.5 to 4 mg, po BID/TID/QID after 6 hrs to IC50 for human MRP2 overexpressed in Sf9 insect cells; format: ADME, organism-based; conditions: in vivo
[19] = Ratio of drug concentration at steady state in human at 0.5 to 4 mg, po BID/TID/QID after 6 hrs to IC50 for human MRP4 overexpressed in Sf9 insect cells; format: ADME, organism-based; conditions: in vivo
[20] = Ratio of drug concentration at steady state in human at 0.5 to 4 mg, po BID/TID/QID after 6 hrs to IC50 for human BSEP overexpressed in Sf9 insect cells; format: ADME, organism-based; conditions: in vivo
[21] = AUC in human at 0.5 to 4 mg, po BID/TID/QID after 6 hrs; format: ADME, organism-based; conditions: in vivo
[22] = Ratio of drug concentration at steady state in human at 0.5 to 4 mg, po BID/TID/QID after 6 hrs to IC50 for human MRP3 overexpressed in Sf9 insect cells; format: ADME, organism-based; conditions: in vivo
[23] = AUC in human at 10 to 80 mg, po QD after 24 hrs; format: ADME, organism-based; conditions: in vivo
clinical [24] = conditions: human, in vivo, po; remark: listed apart in the source
Description: Drug concentration at steady state in human at 10 to 80 mg, po QD after 24 hrs

Chain of ATP-binding cassette sub-family C member 2 (Q92887 whole entry): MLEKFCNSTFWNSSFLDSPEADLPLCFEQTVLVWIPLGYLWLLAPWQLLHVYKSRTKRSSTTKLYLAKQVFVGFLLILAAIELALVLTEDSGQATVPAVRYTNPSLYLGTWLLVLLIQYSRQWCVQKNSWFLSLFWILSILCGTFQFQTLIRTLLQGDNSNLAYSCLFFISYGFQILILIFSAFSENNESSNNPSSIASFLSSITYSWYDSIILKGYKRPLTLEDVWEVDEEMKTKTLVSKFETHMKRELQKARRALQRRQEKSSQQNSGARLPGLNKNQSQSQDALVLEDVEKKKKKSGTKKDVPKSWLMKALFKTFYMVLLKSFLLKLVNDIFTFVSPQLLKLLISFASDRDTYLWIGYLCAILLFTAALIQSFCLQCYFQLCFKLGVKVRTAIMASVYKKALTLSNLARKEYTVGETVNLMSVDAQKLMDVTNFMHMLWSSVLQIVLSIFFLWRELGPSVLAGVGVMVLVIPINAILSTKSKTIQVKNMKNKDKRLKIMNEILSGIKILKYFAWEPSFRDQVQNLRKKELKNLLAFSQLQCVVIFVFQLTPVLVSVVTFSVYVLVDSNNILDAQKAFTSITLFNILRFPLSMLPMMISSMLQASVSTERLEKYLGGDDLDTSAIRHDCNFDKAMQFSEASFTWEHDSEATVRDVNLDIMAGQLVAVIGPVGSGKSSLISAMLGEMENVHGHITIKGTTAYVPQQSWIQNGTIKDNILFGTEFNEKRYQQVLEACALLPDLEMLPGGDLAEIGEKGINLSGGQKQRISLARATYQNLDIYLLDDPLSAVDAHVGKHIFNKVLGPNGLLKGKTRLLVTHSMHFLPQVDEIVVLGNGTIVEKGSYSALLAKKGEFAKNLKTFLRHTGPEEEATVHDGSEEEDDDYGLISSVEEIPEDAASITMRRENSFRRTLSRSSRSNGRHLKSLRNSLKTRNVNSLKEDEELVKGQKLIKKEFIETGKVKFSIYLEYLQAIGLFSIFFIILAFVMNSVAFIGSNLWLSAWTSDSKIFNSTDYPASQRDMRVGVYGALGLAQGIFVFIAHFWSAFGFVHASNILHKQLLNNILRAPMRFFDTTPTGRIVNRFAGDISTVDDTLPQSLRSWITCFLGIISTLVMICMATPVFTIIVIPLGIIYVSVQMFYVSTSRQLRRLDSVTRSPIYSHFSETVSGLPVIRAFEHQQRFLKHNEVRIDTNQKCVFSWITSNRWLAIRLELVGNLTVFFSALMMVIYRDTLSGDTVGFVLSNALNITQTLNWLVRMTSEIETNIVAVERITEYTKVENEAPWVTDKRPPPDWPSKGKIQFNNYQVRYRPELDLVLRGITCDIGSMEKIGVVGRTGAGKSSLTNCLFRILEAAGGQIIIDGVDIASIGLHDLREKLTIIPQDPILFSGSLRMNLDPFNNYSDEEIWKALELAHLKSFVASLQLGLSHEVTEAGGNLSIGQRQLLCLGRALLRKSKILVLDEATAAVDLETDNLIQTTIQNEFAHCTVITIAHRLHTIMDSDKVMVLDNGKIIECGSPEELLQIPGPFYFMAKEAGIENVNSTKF
Chain of ATP-binding cassette sub-family C member 3 (O15438 whole entry): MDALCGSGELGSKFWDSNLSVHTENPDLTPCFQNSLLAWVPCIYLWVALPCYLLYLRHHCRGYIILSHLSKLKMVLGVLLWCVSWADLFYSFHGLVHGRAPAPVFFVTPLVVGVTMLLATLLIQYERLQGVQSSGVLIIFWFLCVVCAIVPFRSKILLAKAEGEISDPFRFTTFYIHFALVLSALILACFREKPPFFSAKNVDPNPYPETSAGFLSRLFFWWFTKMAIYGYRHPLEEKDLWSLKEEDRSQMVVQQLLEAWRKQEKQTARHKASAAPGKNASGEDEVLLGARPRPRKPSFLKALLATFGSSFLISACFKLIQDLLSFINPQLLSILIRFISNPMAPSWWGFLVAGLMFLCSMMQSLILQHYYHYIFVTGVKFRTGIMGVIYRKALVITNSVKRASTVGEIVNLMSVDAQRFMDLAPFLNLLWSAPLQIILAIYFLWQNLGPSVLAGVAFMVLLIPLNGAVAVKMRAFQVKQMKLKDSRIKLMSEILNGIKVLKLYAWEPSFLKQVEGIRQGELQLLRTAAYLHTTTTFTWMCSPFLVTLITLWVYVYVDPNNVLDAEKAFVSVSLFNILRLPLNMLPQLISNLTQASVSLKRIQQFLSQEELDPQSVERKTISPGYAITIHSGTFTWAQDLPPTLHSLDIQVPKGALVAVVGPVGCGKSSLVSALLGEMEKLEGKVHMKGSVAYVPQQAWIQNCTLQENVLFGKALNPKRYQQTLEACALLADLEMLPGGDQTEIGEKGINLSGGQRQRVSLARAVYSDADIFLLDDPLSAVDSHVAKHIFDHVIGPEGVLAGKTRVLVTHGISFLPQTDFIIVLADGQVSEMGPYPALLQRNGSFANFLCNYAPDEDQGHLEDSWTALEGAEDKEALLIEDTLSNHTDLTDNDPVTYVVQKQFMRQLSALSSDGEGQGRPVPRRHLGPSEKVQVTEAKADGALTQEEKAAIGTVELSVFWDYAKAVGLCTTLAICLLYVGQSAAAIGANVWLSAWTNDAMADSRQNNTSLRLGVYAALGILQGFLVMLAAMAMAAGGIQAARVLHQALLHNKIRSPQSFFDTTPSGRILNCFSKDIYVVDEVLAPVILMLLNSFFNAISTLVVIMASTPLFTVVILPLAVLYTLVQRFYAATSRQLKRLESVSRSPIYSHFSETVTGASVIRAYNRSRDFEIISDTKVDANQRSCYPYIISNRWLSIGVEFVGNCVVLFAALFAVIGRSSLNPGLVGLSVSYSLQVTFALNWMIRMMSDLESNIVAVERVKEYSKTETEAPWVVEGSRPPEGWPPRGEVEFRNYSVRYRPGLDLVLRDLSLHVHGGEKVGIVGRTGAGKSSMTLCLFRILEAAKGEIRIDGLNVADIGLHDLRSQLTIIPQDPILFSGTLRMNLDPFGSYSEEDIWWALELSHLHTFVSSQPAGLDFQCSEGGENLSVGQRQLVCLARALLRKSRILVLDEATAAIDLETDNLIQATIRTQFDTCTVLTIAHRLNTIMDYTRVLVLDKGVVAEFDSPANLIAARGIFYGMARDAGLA
Chain of Bile salt export pump (O95342 whole entry): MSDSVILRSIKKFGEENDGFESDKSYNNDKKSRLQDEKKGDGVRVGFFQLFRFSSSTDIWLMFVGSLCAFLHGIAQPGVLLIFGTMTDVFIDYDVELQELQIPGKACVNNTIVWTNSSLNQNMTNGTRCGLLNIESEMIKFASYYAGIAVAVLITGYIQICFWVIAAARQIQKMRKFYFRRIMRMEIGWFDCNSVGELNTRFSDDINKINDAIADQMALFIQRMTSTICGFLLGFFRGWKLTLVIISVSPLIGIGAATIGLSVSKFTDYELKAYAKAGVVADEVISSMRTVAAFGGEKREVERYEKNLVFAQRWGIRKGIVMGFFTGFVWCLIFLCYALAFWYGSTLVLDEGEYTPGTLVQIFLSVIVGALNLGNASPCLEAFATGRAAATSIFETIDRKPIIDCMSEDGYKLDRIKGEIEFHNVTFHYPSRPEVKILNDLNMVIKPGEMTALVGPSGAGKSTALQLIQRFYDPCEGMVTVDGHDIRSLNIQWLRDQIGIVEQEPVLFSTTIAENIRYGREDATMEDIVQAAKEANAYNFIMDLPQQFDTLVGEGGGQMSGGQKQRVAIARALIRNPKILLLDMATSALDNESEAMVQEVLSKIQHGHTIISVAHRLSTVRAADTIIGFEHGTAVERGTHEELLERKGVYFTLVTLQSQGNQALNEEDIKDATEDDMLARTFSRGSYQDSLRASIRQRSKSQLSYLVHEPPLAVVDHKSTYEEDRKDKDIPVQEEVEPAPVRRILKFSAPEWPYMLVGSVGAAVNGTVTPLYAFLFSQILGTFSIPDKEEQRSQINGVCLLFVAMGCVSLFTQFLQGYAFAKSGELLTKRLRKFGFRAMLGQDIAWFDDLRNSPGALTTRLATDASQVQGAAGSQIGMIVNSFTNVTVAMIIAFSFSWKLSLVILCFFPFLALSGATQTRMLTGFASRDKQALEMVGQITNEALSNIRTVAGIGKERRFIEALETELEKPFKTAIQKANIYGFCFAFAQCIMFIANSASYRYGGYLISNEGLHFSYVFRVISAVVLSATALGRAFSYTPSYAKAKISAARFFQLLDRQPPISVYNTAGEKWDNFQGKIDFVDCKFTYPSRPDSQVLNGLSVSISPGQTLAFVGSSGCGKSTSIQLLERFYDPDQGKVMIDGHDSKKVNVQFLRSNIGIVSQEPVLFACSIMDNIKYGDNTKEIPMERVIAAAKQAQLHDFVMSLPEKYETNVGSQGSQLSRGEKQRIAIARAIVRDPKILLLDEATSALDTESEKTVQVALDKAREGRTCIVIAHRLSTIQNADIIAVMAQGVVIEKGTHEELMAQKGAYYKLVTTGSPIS

With C#C[C@@]1(OC(C)=O)CC[C@H]2[C@@H]3CCC4=CC(=O)CC[C@@H]4[C@H]3CC[C@@]21C the IC50 (Bile salt export pump) was 36 µM, the AUC at 24 h [1] was 0.494 µM·h and the concentration at 24 h [2] was 21 nM. The IC50 [3] was > 133 µM, the Ratio [4] was 0.00057 and the IC50 [5] was > 133 µM. For the same compound, the IC50 [6] was > 133 µM.
With COC(=O)C1=C(C)NC(C)=C(C(=O)OCC(C)C)C1c1ccccc1[N+](=O)[O-] (stereo unspecified) [NISOLDIPINE] the IC50 (Bile salt export pump) was 33 µM, the Ratio [7] was 0 and the AUC at 24 h [8] was 0.134 µM·h. For the same compound, the IC50 [3] was > 133 µM, the concentration at 24 h [9] was 6 nM and the IC50 [5] was > 133 µM. It also gave an IC50 [6] of 16.5 µM and a Ratio [10] of 0.00017.
Work on Cc1ncc2n1-c1ccc(Cl)cc1C(c1ccccc1F)=NC2 [MIDAZOLAM] yielded an AUC at 24 h (clinical [11]) of 0.369 µM·h and a Css (Homo sapiens [12]) of 15 nM.
Compound C=CC[C@@H]1/C=C(\C)C[C@H](C)C[C@H](OC)[C@H]2O[C@@](O)(C(=O)C(=O)N3CCCC[C@H]3C(=O)O[C@H](/C(C)=C/[C@@H]3CC[C@@H](O)[C@H](OC)C3)[C@H](C)[C@@H](O)CC1=O)[C@H](C)C[C@@H]2OC [TACROLIMUS ANHYDROUS] has a Ratio [13] of 0.001, an IC50 (Bile salt export pump) of 7.18 µM and an AUC at 24 h [14] of 0.252 µM·h. The Css (Homo sapiens [15]) was 11 nM, the IC50 [3] was 40.3 µM and the Ratio [16] was 0. For the same compound, the IC50 [5] was > 133 µM and the IC50 [6] was > 133 µM.
In the case of CCOc1cc(CC(=O)N[C@@H](CC(C)C)c2ccccc2N2CCCCC2)ccc1C(=O)O [REPAGLINIDE], the IC50 (Bile salt export pump) is reported as 22 µM, the concentration at 6 h [17] is reported as 16 nM and the Ratio [18] is reported as 0. For the same compound, the IC50 [3] was 72.3 µM, the Ratio [19] was 0 and the IC50 [5] was 16.7 µM. It also gave an IC50 [6] of 53.9 µM, a Ratio [20] of 0.00075 and an AUC at 6 h [21] of 0.099 µM·h. The Ratio [22] was 0.001.
For CC[C@H](C)C(=O)O[C@H]1C[C@@H](C)C=C2C=C[C@H](C)[C@H](CC[C@@H]3C[C@@H](O)CC(=O)O3)[C@H]21 [LOVASTATIN], the IC50 (Bile salt export pump) was 19.3 µM, the AUC at 24 h [23] was 0.238 µM·h and the IC50 [3] was > 133 µM. The concentration at 24 h (clinical [24]) was 10 nM, the IC50 [5] was > 133 µM and the IC50 [6] was > 133 µM.
